Measured values published in ChEMBL document CHEMBL5715954, “Silencing c-Myc translation as a therapeutic strategy through targeting PI3Kδ and CK1ε in hematological malignancies” (Blood, 2017).

Assays:
Set-up in all cases: scale not given: the % may be the effect or the level left
[1] = molecular target: T1, Tyrosine-protein kinase Mer (Homo sapiens) (UniProt Q12866); assay: Inhibition of human c-MER assessed as enzyme activity at 1 uM using poly[Glu:Tyr] (4:1) as substrate preincubated for 20 mins followed by [gamma-33P]-ATP addition and measured after 120 mins by radiometric Hot-SpotSM Kinase assay relative to control
T1 sequence (whole entry): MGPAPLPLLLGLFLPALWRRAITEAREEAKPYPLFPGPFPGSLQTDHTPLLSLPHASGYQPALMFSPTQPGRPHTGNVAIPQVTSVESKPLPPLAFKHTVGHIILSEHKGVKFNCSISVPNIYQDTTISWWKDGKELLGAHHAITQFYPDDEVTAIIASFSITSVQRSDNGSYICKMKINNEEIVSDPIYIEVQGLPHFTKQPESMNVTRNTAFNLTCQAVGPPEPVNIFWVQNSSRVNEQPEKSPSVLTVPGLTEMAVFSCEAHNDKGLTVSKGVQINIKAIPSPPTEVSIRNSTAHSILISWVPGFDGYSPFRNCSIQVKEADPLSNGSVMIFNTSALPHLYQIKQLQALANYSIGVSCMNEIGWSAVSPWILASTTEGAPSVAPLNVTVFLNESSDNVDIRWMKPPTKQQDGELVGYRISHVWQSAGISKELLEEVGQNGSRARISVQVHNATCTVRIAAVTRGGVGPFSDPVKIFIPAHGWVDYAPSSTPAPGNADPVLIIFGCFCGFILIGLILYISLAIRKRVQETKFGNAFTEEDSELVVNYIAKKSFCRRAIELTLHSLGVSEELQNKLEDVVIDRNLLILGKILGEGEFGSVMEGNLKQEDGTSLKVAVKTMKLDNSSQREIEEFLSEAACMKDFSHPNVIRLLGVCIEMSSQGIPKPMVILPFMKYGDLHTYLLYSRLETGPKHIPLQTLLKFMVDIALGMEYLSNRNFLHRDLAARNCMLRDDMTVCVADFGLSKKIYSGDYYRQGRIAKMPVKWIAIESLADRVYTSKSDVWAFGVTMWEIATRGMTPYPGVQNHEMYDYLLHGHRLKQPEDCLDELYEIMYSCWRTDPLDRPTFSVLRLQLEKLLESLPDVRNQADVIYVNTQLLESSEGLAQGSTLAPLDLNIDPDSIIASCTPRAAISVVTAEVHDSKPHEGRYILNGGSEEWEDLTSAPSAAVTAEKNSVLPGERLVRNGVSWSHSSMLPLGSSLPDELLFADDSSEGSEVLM

[2] = molecular target: CDK6/cyclin D3 (Homo sapiens) (UniProt P30281+Q00534); assay: Inhibition of human CDK6/cyclin D3 assessed as enzyme activity at 1 uM using RB Protein as substrate preincubated for 20 mins followed by [gamma-33P]-ATP addition and measured after 120 mins by radiometric Hot-SpotSM Kinase assay relative to control; assay type: protein-complex assay
[3] = molecular target: T2, Serine/threonine-protein kinase Chk1 (Homo sapiens) (UniProt O14757); assay: Inhibition of human CHK1 assessed as enzyme activity at 1 uM using KKKVSRSGLYRSPSMPENLNRPR as substrate preincubated for 20 mins followed by [gamma-33P]-ATP addition and measured after 120 mins by radiometric Hot-SpotSM Kinase assay relative to control
T2 sequence (whole entry): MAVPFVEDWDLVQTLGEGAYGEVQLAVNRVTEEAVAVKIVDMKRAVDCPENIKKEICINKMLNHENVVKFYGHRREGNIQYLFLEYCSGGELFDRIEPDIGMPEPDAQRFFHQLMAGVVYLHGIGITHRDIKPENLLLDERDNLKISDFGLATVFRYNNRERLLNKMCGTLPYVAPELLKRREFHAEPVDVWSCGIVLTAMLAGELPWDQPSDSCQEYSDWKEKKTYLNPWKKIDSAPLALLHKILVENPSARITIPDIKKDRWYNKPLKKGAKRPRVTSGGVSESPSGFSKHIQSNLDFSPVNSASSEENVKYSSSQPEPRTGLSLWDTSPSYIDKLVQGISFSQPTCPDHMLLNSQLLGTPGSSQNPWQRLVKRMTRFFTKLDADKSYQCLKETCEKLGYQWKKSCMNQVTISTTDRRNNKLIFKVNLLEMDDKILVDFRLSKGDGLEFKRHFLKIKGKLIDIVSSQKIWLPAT

[4] = molecular target: Epithelial discoidin domain-containing receptor 1 (Homo sapiens) (UniProt Q08345); assay: Inhibition of human DDR1 assessed as enzyme activity at 1 uM using KKSRGDYMTMQIG as substrate preincubated for 20 mins followed by [gamma-33P]-ATP addition and measured after 120 mins by radiometric Hot-SpotSM Kinase assay relative to control
[5] = molecular target: T3, Rhodopsin kinase GRK7 (Homo sapiens) (UniProt Q8WTQ7); assay: Inhibition of human GRK7 assessed as enzyme activity at 1 uM using casein as substrate preincubated for 20 mins followed by [gamma-33P]-ATP addition and measured after 120 mins by radiometric Hot-SpotSM Kinase assay relative to control
T3 sequence (whole entry): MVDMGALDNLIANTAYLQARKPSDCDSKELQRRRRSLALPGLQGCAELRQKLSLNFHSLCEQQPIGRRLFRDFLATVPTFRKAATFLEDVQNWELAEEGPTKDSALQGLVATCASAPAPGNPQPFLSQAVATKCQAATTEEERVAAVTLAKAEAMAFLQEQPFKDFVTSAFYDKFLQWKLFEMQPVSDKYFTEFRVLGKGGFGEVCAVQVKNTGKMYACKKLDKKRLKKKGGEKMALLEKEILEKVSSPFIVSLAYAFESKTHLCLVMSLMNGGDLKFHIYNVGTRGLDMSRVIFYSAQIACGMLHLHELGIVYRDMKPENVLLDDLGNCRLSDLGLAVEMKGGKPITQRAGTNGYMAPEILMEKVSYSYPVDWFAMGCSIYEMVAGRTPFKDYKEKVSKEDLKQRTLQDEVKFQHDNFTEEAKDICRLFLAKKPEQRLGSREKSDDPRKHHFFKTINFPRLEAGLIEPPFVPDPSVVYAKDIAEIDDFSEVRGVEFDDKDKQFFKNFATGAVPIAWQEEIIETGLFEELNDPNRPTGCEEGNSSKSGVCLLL

[6] = molecular target: Ribosomal protein S6 kinase beta-2 (Homo sapiens) (UniProt Q9UBS0); assay: Inhibition of human p70S6Kb assessed as enzyme activity at 1 uM using KKRNRTLTK as substrate preincubated for 20 mins followed by [gamma-33P]-ATP addition and measured after 120 mins by radiometric Hot-SpotSM Kinase assay relative to control
[7] = molecular target: Tau-tubulin kinase 1 (Homo sapiens) (UniProt Q5TCY1); assay: Inhibition of human TTBK1 assessed as enzyme activity at 1 uM using myelin basic protein as substrate preincubated for 20 mins followed by [gamma-33P]-ATP addition and measured after 120 mins by radiometric Hot-SpotSM Kinase assay relative to control
Tau-tubulin kinase 1 (Homo sapiens), sequence (Q5TCY1 whole entry): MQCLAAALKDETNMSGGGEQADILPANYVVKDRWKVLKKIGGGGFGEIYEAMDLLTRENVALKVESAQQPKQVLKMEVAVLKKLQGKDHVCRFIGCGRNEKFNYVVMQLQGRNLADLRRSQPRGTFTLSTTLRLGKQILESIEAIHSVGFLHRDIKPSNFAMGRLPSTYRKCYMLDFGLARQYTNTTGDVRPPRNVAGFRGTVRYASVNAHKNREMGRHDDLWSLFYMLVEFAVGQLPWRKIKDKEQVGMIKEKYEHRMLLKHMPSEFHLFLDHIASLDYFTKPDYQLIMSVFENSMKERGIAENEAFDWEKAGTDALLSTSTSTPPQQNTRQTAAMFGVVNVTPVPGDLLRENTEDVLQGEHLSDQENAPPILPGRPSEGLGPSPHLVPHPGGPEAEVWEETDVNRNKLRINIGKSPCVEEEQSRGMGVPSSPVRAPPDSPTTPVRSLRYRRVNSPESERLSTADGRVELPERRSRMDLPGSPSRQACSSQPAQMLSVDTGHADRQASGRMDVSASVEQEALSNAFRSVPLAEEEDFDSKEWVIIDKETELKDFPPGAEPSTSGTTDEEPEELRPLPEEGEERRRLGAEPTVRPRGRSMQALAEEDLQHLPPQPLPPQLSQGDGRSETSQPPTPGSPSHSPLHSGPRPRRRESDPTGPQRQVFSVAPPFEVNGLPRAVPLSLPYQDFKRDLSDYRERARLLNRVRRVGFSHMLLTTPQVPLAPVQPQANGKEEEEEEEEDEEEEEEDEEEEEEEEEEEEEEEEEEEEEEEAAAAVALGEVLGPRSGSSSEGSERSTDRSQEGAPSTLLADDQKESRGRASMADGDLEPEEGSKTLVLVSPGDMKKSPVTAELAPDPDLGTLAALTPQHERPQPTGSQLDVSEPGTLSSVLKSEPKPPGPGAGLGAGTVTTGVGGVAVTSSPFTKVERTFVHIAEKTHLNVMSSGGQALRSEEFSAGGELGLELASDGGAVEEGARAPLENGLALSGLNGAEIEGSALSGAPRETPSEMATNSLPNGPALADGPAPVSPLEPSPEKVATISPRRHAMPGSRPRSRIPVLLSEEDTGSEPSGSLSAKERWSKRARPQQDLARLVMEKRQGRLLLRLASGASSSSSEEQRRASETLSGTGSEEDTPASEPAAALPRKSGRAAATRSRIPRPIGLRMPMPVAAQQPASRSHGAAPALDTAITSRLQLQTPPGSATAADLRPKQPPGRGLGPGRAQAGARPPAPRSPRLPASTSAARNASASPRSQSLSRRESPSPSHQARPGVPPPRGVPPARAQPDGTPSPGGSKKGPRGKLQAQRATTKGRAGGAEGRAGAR

Epithelial discoidin domain-containing receptor 1 (Homo sapiens), sequence (Q08345 whole entry, the tested form may be a part): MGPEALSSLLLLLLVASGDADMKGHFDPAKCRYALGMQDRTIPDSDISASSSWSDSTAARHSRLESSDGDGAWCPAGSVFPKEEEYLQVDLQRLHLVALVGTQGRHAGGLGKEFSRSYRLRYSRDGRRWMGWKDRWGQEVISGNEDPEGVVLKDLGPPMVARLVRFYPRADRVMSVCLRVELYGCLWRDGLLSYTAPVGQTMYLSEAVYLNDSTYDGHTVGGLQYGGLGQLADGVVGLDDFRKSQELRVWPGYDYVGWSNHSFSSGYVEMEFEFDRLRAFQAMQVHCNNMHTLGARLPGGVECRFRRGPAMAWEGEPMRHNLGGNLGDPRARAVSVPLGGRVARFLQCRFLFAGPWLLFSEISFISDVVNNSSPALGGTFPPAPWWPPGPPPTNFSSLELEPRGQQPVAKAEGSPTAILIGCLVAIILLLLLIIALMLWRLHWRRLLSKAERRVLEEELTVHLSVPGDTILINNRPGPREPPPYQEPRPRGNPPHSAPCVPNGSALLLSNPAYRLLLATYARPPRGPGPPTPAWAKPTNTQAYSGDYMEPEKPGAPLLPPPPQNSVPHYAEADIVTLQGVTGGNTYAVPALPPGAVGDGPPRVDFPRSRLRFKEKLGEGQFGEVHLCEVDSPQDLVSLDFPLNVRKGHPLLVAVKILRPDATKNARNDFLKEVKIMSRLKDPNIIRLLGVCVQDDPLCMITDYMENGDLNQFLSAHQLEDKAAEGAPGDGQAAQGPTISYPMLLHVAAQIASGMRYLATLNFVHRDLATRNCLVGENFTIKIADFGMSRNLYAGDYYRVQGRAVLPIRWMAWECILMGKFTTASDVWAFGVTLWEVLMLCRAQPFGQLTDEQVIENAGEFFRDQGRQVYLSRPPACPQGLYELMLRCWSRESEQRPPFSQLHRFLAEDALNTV
Ribosomal protein S6 kinase beta-2 (Homo sapiens), sequence (Q9UBS0 whole entry): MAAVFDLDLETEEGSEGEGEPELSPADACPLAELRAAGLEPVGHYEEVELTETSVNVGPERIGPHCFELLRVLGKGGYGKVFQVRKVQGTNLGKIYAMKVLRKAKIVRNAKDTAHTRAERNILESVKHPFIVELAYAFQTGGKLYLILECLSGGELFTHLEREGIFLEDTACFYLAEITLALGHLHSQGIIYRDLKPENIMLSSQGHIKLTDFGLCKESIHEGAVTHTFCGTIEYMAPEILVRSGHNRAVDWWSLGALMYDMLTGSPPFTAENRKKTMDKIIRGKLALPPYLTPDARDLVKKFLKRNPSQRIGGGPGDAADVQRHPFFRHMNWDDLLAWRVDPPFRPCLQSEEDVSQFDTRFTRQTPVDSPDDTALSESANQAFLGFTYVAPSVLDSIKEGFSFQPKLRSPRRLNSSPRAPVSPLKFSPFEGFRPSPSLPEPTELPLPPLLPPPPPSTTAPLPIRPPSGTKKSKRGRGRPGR

Structure (SMILES)	Activity [1]	Activity [2]	Activity [3]	Activity [4]	Activity [5]	Activity [6]	Activity [7]
C[C@H](Nc1ncnc2nc[nH]c12)c1cc2cccc(Cl)c2c(=O)n1-c1ccccc1	103%	96.5%	94.1%	88.6%	101%	96.8%	97.8%
CC[C@H](Nc1ncnc2[nH]cnc12)c1nc2cccc(F)c2c(=O)n1-c1ccccc1	104%	102%	93.2%	83.8%	95%	104%	95.8%
CC(C)Oc1ccc(-c2nn([C@@H](C)c3oc4ccc(F)cc4c(=O)c3-c3cccc(F)c3)c3ncnc(N)c23)cc1F [UMBRALISIB]	102%	97.8%	95%	83.1%	100%	105%	103%
